The record followed here is PubChem BioAssay AID2060501 (Molecular Pharmacology Branch, DTP, NCI, 2025).
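Note: spheroids exposed to compounds for 7 days before readout.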

In one experiment the test system is 282377-053-R-J1-PDC complex spheroids, viability. The experiment in a line: Anticancer human tumor 282377-053-R-J1-PDC patient-derived colon adenocarcinoma cell line growth inhibition [GQUAD]. The settings on record: curve of first compound; second compound 0.0316 µM. An outline of the steps: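 Tumor cells were grown as complex spheroids with HUVEC endothelial cells and mesenchymal stem cells as stroma. G-quadruplex stabilizers were combined with targeted agents over half-log dilutions from near the clinical Cmax, or from 10 microM.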
Consider `C=CCn1c(=O)c2cnc(Nc3ccc(N4CCN(C)CC4)cc3)nc2n1-c1cccc(C(C)(C)O)n1` + CN(C)c1ccc(Nc2c3ccc(NC(=O)CCN4CCCC4)cc3nc3cc(NC(=O)CCN4CCCC4)ccc23)cc1, for which the half-maximal inhibitory concentration (IC50) was found to be 1910 nM.

`CC(C)(O)C1CCC(Nc2ccc3ncc(-c4cccc(C(F)(F)F)c4)n3n2)CC1` (stereo unspecified) + CN(C)c1ccc(Nc2c3ccc(NC(=O)CCN4CCCC4)cc3nc3cc(NC(=O)CCN4CCCC4)ccc23)cc1: the 50% inhibitory concentration (IC50) came out at 1800 nM.

For the compound `COc1ncnc(C2CC2)c1-c1ncc2cnn(Cc3ccc(-c4nc(C(F)(F)F)cn4C(C)C)cc3)c2n1` + CN(C)c1ccc(Nc2c3ccc(NC(=O)CCN4CCCC4)cc3nc3cc(NC(=O)CCN4CCCC4)ccc23)cc1, the IC50 is greater than 10000 nM.

For `CC1COCCN1c1cc(C2(S(C)(=N)=O)CC2)nc(-c2ccnc3[nH]ccc23)n1` (stereo unspecified) + Cc1[nH]c2ccc(F)cc2c1-c1nc2c3cccnc3c3ncccc3c2[nH]1, the IC50 was greater than 10000 nM.

Regarding `COc1ccc([C@@H](O)c2cc(-c3ncnc4cc(N5CCOCC5)ccc34)c(F)cc2Cl)nn1` + Cc1[nH]c2ccc(F)cc2c1-c1nc2c3cccnc3c3ncccc3c2[nH]1, the IC50 is greater than 10000 nM.

Still in this experiment, the particulars now being: curve of first compound; second compound 0.1 µM.
In the case of `C=CCn1c(=O)c2cnc(Nc3ccc(N4CCN(C)CC4)cc3)nc2n1-c1cccc(C(C)(C)O)n1` + CN(C)c1ccc(Nc2c3ccc(NC(=O)CCN4CCCC4)cc3nc3cc(NC(=O)CCN4CCCC4)ccc23)cc1, the IC50 turned out to be 1980 nM.

On to `CC(C)(O)C1CCC(Nc2ccc3ncc(-c4cccc(C(F)(F)F)c4)n3n2)CC1` (stereo unspecified) + CN(C)c1ccc(Nc2c3ccc(NC(=O)CCN4CCCC4)cc3nc3cc(NC(=O)CCN4CCCC4)ccc23)cc1, for which the IC50 came to 2150 nM.

For `COc1ncnc(C2CC2)c1-c1ncc2cnn(Cc3ccc(-c4nc(C(F)(F)F)cn4C(C)C)cc3)c2n1` + CN(C)c1ccc(Nc2c3ccc(NC(=O)CCN4CCCC4)cc3nc3cc(NC(=O)CCN4CCCC4)ccc23)cc1, the concentration for half-maximal inhibition (IC50) is greater than 10000 nM.

`CC1COCCN1c1cc(C2(S(C)(=N)=O)CC2)nc(-c2ccnc3[nH]ccc23)n1` (stereo unspecified) + Cc1[nH]c2ccc(F)cc2c1-c1nc2c3cccnc3c3ncccc3c2[nH]1: the IC50 worked out at 8740 nM.

In the case of `COc1ccc([C@@H](O)c2cc(-c3ncnc4cc(N5CCOCC5)ccc34)c(F)cc2Cl)nn1` + Cc1[nH]c2ccc(F)cc2c1-c1nc2c3cccnc3c3ncccc3c2[nH]1, the IC50 was greater than 10000 nM.

The same experiment, now with this note: curve of first compound; second compound 0.316 µM.
`C=CCn1c(=O)c2cnc(Nc3ccc(N4CCN(C)CC4)cc3)nc2n1-c1cccc(C(C)(C)O)n1` + CN(C)c1ccc(Nc2c3ccc(NC(=O)CCN4CCCC4)cc3nc3cc(NC(=O)CCN4CCCC4)ccc23)cc1: the half-inhibitory concentration (IC50) was 2040 nM.

Take `CC(C)(O)C1CCC(Nc2ccc3ncc(-c4cccc(C(F)(F)F)c4)n3n2)CC1` (stereo unspecified) + CN(C)c1ccc(Nc2c3ccc(NC(=O)CCN4CCCC4)cc3nc3cc(NC(=O)CCN4CCCC4)ccc23)cc1: the concentration for half-maximal inhibition (IC50) stood at 2000 nM.

In the case of `COc1ncnc(C2CC2)c1-c1ncc2cnn(Cc3ccc(-c4nc(C(F)(F)F)cn4C(C)C)cc3)c2n1` + CN(C)c1ccc(Nc2c3ccc(NC(=O)CCN4CCCC4)cc3nc3cc(NC(=O)CCN4CCCC4)ccc23)cc1, the IC50 is greater than 10000 nM.

On to `CC1COCCN1c1cc(C2(S(C)(=N)=O)CC2)nc(-c2ccnc3[nH]ccc23)n1` (stereo unspecified) + Cc1[nH]c2ccc(F)cc2c1-c1nc2c3cccnc3c3ncccc3c2[nH]1, for which the 50% inhibitory concentration (IC50) was greater than 10000 nM.

Take `COc1ccc([C@@H](O)c2cc(-c3ncnc4cc(N5CCOCC5)ccc34)c(F)cc2Cl)nn1` + Cc1[nH]c2ccc(F)cc2c1-c1nc2c3cccnc3c3ncccc3c2[nH]1: the half-maximal inhibitory concentration (IC50) was greater than 10000 nM.

Staying with this experiment, now noted: curve of first compound; second compound 1 µM.
In the case of `C=CCn1c(=O)c2cnc(Nc3ccc(N4CCN(C)CC4)cc3)nc2n1-c1cccc(C(C)(C)O)n1` + CN(C)c1ccc(Nc2c3ccc(NC(=O)CCN4CCCC4)cc3nc3cc(NC(=O)CCN4CCCC4)ccc23)cc1, the IC50 was determined as 1860 nM.

`CC(C)(O)C1CCC(Nc2ccc3ncc(-c4cccc(C(F)(F)F)c4)n3n2)CC1` (stereo unspecified) + CN(C)c1ccc(Nc2c3ccc(NC(=O)CCN4CCCC4)cc3nc3cc(NC(=O)CCN4CCCC4)ccc23)cc1: the IC50 worked out at 1750 nM.

As to `COc1ncnc(C2CC2)c1-c1ncc2cnn(Cc3ccc(-c4nc(C(F)(F)F)cn4C(C)C)cc3)c2n1` + CN(C)c1ccc(Nc2c3ccc(NC(=O)CCN4CCCC4)cc3nc3cc(NC(=O)CCN4CCCC4)ccc23)cc1, the IC50 is greater than 10000 nM.

As to `CC1COCCN1c1cc(C2(S(C)(=N)=O)CC2)nc(-c2ccnc3[nH]ccc23)n1` (stereo unspecified) + Cc1[nH]c2ccc(F)cc2c1-c1nc2c3cccnc3c3ncccc3c2[nH]1, the 50% inhibitory concentration (IC50) was found to be 4980 nM.

As for `COc1ccc([C@@H](O)c2cc(-c3ncnc4cc(N5CCOCC5)ccc34)c(F)cc2Cl)nn1` + Cc1[nH]c2ccc(F)cc2c1-c1nc2c3cccnc3c3ncccc3c2[nH]1, the 50% inhibitory concentration (IC50) was greater than 10000 nM.

The same experiment, now with this note: curve of first compound; second compound 3.16 µM.
In the case of `C=CCn1c(=O)c2cnc(Nc3ccc(N4CCN(C)CC4)cc3)nc2n1-c1cccc(C(C)(C)O)n1` + CN(C)c1ccc(Nc2c3ccc(NC(=O)CCN4CCCC4)cc3nc3cc(NC(=O)CCN4CCCC4)ccc23)cc1, the half-maximal inhibitory concentration (IC50) is 1800 nM.

As for `CC(C)(O)C1CCC(Nc2ccc3ncc(-c4cccc(C(F)(F)F)c4)n3n2)CC1` (stereo unspecified) + CN(C)c1ccc(Nc2c3ccc(NC(=O)CCN4CCCC4)cc3nc3cc(NC(=O)CCN4CCCC4)ccc23)cc1, the concentration for half-maximal inhibition (IC50) stood at 1650 nM.

On to `COc1ncnc(C2CC2)c1-c1ncc2cnn(Cc3ccc(-c4nc(C(F)(F)F)cn4C(C)C)cc3)c2n1` + CN(C)c1ccc(Nc2c3ccc(NC(=O)CCN4CCCC4)cc3nc3cc(NC(=O)CCN4CCCC4)ccc23)cc1, for which the IC50 is greater than 10000 nM.

Take `CC1COCCN1c1cc(C2(S(C)(=N)=O)CC2)nc(-c2ccnc3[nH]ccc23)n1` (stereo unspecified) + Cc1[nH]c2ccc(F)cc2c1-c1nc2c3cccnc3c3ncccc3c2[nH]1: the IC50 was determined as 822 nM.

With `COc1ccc([C@@H](O)c2cc(-c3ncnc4cc(N5CCOCC5)ccc34)c(F)cc2Cl)nn1` + Cc1[nH]c2ccc(F)cc2c1-c1nc2c3cccnc3c3ncccc3c2[nH]1, the IC50 was determined as 432 nM.

Staying with this experiment, now noted: curve of first compound; second compound 10 µM.
As to `C=CCn1c(=O)c2cnc(Nc3ccc(N4CCN(C)CC4)cc3)nc2n1-c1cccc(C(C)(C)O)n1` + CN(C)c1ccc(Nc2c3ccc(NC(=O)CCN4CCCC4)cc3nc3cc(NC(=O)CCN4CCCC4)ccc23)cc1, the IC50 is 2320 nM.

Usually IC50 stands for the concentration that gives 50% inhibition.
